Key:
mouse PXR (mPXR) = molecular target: T1, mouse PXR (mPXR) (Mus musculus, UniProt O54915); assay: In vitro transcription assay, PXR reporter gene (MRP2 luciferase) with mPXR expression plasmid in 293T cells; type: cell-based
T1 construct: expressed in transfected cells; host or cells: 293T cells
T1 sequence (O54915 1-431): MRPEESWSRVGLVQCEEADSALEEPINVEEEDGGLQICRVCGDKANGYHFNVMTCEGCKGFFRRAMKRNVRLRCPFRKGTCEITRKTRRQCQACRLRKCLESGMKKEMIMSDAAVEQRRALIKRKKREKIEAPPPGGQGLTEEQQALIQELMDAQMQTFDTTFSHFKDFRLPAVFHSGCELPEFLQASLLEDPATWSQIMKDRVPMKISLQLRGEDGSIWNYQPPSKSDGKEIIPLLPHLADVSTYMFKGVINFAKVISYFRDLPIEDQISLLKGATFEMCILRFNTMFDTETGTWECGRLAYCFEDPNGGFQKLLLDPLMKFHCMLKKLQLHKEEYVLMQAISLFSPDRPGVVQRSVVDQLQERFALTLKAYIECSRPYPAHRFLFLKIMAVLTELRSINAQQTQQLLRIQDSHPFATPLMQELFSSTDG
Description: These assays were performed in 293T cells as previously published (33). In brief, transient transfection by lipofectamine (Invitrogen) were carried out in 293T cells with plasmids expressing human PXR (hPXR), mouse PXR (mPXR), GAL4-FXR, GAL4-LXR, GAL4-PPARγ and mouse CAR (mCAR) with respective reporter plasmids (Tk-MRP2-luciferase, Tk-MH100-luciferase, CYP2B10-luciferase) and Renilla. […] The cells were harvested in passive lysis buffer (Promega) and luciferase activity was detected using the dualluciferase reporter assay system from Promega in 20 μl of cell lysate using the Turner Biosystems 20/20 n Luminometer. Assays were performed at least two independent times each in triplicates.

human PXR (hPXR) = molecular target: T2, human PXR (hPXR) (Homo sapiens, UniProt O75469); assay: In vitro transcription assay, PXR reporter gene (MRP2 luciferase) with hPXR expression plasmid in 293T cells
T2 sequence (O75469 1-434): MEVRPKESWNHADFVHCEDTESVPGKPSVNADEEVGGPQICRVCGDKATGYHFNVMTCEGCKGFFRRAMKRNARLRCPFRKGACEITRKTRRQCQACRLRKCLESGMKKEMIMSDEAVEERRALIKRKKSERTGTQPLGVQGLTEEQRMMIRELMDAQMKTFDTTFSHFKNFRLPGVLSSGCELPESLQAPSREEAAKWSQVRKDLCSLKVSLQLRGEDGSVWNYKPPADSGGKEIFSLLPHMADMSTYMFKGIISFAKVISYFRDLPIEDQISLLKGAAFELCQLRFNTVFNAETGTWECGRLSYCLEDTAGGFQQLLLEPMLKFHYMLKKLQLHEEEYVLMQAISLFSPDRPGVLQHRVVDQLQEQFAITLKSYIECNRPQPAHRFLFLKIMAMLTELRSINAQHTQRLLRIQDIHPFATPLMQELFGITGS
Description: These assays were performed in 293T cells as previously published (33). In brief, transient transfection by lipofectamine (Invitrogen) were carried out in 293T cells with plasmids expressing human PXR (hPXR), mouse PXR (mPXR), GAL4-FXR, GAL4-LXR, GAL4-PPARγ and mouse CAR (mCAR) with respective reporter plasmids (Tk-MRP2-luciferase, Tk-MH100-luciferase, CYP2B10-luciferase) and Renilla. For TLR4 promoter luciferase transcription assay, TLR4 promoter reporter construct (a gift from Dr. Michael Rehli of University of Regensburg, Germany) was transfected along with human PXR, mouse PU.1 expression plasmids and Renilla. […] The cells were harvested in passive lysis buffer (Promega) and luciferase activity was detected using the dualluciferase reporter assay system from Promega in 20 μl of cell lysate using the Turner Biosystems 20/20 n Luminometer. Assays were performed at least two independent times each in triplicates.

[1] = molecular target: T3, mPXR ligand binding domain (Mus musculus, UniProt O54915); assay: LanthaScreen TR-FRET PXR competitive binding assay, mPXR LBD; settings: read-out: EC50 for ligand displacement in mPXR
T3 construct: made in house
T3 sequence (O54915 143-430 limits assumed): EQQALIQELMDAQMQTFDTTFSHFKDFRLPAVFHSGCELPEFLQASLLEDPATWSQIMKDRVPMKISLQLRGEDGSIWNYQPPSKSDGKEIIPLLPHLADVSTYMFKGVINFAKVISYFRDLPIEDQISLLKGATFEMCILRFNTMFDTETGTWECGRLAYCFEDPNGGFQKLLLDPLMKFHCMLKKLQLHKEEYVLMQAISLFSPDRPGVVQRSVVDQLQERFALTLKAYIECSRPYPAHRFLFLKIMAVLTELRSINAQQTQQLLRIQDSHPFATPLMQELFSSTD
Description: (§1) A LanthaScreen TR-FRET PXR Competitive Binding Assay was conducted according to the manufacturer's protocol (Invitrogen) as previously published (14). Briefly, serial dilutions of indole 3-propionic acid (diluted in TR-FRET PXR Assay Buffer, Invitrogen) were dispensed into triplicate wells of a black, non-treated 384 well plate (Corning Life Sciences). Subsequently, 5 μl of Fluormone PXR Green was added into each well. Finally, 5 μl of a master mix containing hPXR ligand binding domain (LBD), terbium labeled anti-glutathione S transferase (final concentration 10 nM) and dithiothreitol (final concentration 0.05 mM) was added into each well. For mPXR ligand binding domain, GST tagged mPXR LBD was purified using Glutathione Sepharose 4 Fast Flow beads (GE Health Care) in Poly-Prep Chromatography columns (Bio-Rad). hPXR LBD of the assay kit was replaced with the similar concentrations of mPXR LBD. The content was mixed briefly (10 s) and incubated in dark at room temperature for 1 h. TR-FRET was measured using SpectraMaxR M5 microplate reader (Molecular Devices) with the excitation wavelength of 340 nm and emission wavelengths of 520 and 495 nm. TR-FRET ratio was calculated by dividing the emission signal at 520 nm by emission signal at 495 nm. Data are expressed as percentage TR-FRET ratio. Error bars represent s.e.m of duplicate wells from two separate experiments.

[2] = molecular target: T4, hPXR ligand binding domain (LBD) (Homo sapiens, UniProt O75469); assay: LanthaScreen TR-FRET PXR competitive binding assay, hPXR LBD; settings: read-out: EC50 for ligand displacement in hPXR
T4 construct: purchased Invitrogen
T4 sequence (O75469 146-433 limits assumed): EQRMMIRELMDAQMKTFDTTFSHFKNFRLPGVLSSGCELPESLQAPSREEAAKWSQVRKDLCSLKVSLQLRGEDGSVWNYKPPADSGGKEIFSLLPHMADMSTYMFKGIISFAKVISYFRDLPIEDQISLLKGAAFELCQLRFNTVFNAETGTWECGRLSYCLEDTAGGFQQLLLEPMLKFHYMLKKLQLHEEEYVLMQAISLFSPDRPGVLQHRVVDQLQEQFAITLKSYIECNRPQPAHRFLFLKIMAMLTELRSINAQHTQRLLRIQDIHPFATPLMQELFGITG
Description: as §1

[3] = test system: gut permeability to FITC-dextran; assay: In vivo FITC-dextran gut permeability assay in germ free mice after oral IPA; settings: germ free (SWGF) mice; oral IPA 20 mg/kg, four consecutive days
Description: Age and sex-matched mice were orally administered with 0.6 mg/g body weight of an 80 mg/ml solution of FITC-dextran (FD4, Sigma). 5 h later, retro-orbital blood was collected from each mouse. Serum was prepared by allowing the blood to clot by leaving it undisturbed overnight at 4° C. and then subsequently centrifuged at 3000 rpm for 20 minutes. Dilutions of FITC-dextran in PBS were used as a standard curve. Absorption of 50 μl serum was measured at microplate reader with excitation and emission filters set at 490 and 530 nm, respectively (38).

**Q.** How did the EC50 (mouse PXR (mPXR)) turn out when O=C(O)CCc1c[nH]c2ccccc12 [IPA, indole-3-propionic acid] was run?
**A.** 550 nM

**Q.** And the “Emax, mPXR transcription assay” value (mouse PXR (mPXR))?
**A.** 18.84 fold over control

**Q.** What about the EC50 (human PXR (hPXR)) of the same compound?
**A.** 120000 nM

**Q.** And the “Emax, hPXR transcription assay” value (human PXR (hPXR); IPA alone, MRP2 luciferase, 293T cells)?
**A.** 6.38 fold over control

**Q.** What about the “hPXR activation in combination with indole” value (human PXR (hPXR); fixed concentration of indole (1 mM), increasing concentrations of metabolite) of the same compound?
**A.** significantly activates hPXR

**Q.** What about the EC50 [1] of the same compound?
**A.** 1100 nM

**Q.** What about the EC50 [2] of the same compound?
**A.** 2100 nM

**Q.** And the “Gut permeability to FITC-dextran” value [3]?
**A.** decreased gut permeability to FITC-dextran
